Test results reported in publication PMC6440464 (PeerJ, 2019).
“And” between values parts separate entries of the source, which are not always exact repeats. Identical values can stand only once.

Assay: Stability of the analytes in rat plasma QC samples at different storage conditions
Assay type: in vitro ADME
Conditions: for Post-preparation stability (4℃ for 24 h) Measured Conc.: extracted plasma samples in auto sampler rack; for Post-preparation stability (4℃ for 24 h) Measured Conc. / Free-thaw stability (3 free-thaw cycles) Measured Conc. / Long-term stability (-80℃ for 15 d) Measured Conc. / Short-term stability (25℃ for 12 h) Measured Conc.: n=5; for Free-thaw stability, Test Conc., AV / Free-thaw stability, Test Conc. / Post-preparation stability, Test Conc., AV / Post-preparation stability, Test Conc. / Short-term stability, Test Conc., AV / Short-term stability, Test Conc. / Long-term stability, Test Conc., AV / Long-term stability, Test Conc.: plasma; for Free-thaw stability, Test Conc., AV / Free-thaw stability, Test Conc.: 3 free-thaw cycles; for Free-thaw stability, Test Conc., AV / Post-preparation stability, Test Conc., AV / Short-term stability, Test Conc., AV / Long-term stability, Test Conc., AV: AV of 5 replicates; for Free-thaw stability, Test Conc. / Post-preparation stability, Test Conc. / Short-term stability, Test Conc. / Long-term stability, Test Conc.: single replicates NO.1-NO.5; for Post-preparation stability, Test Conc., AV / Post-preparation stability, Test Conc.: 4℃ for 24 h; for Short-term stability, Test Conc., AV / Short-term stability, Test Conc.: 25℃ for 12 h; for Long-term stability, Test Conc., AV / Long-term stability, Test Conc.: -80℃ for 15 d; for Free-thaw stability (3 free-thaw cycles) Measured Conc. / Long-term stability (-80℃ for 15 d) Measured Conc. / Short-term stability (25℃ for 12 h) Measured Conc.: rat plasma
Description: The stabilities of Qr, IQ, and QG in plasma were assessed by analyzing QC samples at different storage conditions. The stabilities of three flavonoids in plasma were studied by analyzing three concentration levels of QC samples (n = 5) at room temperature (25 °C) for 12 h, at long-term storage (−80 °C for 15 days), after three freeze (−80 °C) and thaw (room temperature) cycles, and at auto sampler rack storage (4 °C for 24 h).

[1] = high QC, nominal 8400.0 (Qr), 976.0 (IQ), 10000.0 (QG) ng/mL
[2] = low QC, nominal 65.6 (Qr), 48.8 (IQ), 100.0 (QG) ng/mL
[3] = nominal Conc. 48.80 ng/mL, listed as Isoquercitrin (IQ)
[4] = nominal Conc. 244.00 ng/mL, listed as Isoquercitrin (IQ)
[5] = nominal Conc. 976.00 ng/mL, listed as Isoquercitrin (IQ)
[6] = medium QC, nominal 525.0 (Qr), 244.0 (IQ), 1000.0 (QG) ng/mL
[7] = nominal Conc. 65.63 ng/mL, listed as Quercetin (Qr)
[8] = nominal Conc. 525.00 ng/mL, listed as Quercetin (Qr)
[9] = nominal Conc. 8400.00 ng/mL, listed as Quercetin (Qr)

O=c1c(O[C@@H]2O[C@H](CO)[C@@H](O)[C@H](O)[C@H]2O)c(-c2ccc(O)c(O)c2)oc2cc(O)cc(O)c12 [IQ, Isoquercitrin]
Post-preparation stability (4℃ for 24 h) Measured Conc. [1]: 937.6 ± 55.4 ng/mL
Post-preparation stability (4℃ for 24 h) Measured Conc. [2]: 45.3 ± 1.4 ng/mL
Post-preparation stability (4℃ for 24 h) Measured Conc.: 255.6 ± 16.0 ng/mL
Free-thaw stability, Test Conc., AV (nominal Conc. 48.80 ng/mL): 50.35 ng/mL
Free-thaw stability, Test Conc. [3]: 49.95 ng/mL and 49.90 ng/mL and 50.70 ng/mL and 48.08 ng/mL and 53.12 ng/mL
Free-thaw stability, Test Conc., AV (nominal Conc. 244.00 ng/mL): 242.47 ng/mL
Free-thaw stability, Test Conc. [4]: 230.75 ng/mL and 211.89 ng/mL and 256.83 ng/mL and 252.00 ng/mL and 260.86 ng/mL
Free-thaw stability, Test Conc., AV (nominal Conc. 976.00 ng/mL): 1028.98 ng/mL
Free-thaw stability, Test Conc. [5]: 934.23 ng/mL and 1056.62 ng/mL and 1064.04 ng/mL and 1091.46 ng/mL and 998.55 ng/mL
Post-preparation stability, Test Conc., AV (nominal Conc. 48.80 ng/mL): 45.28 ng/mL
Post-preparation stability, Test Conc. [3]: 45.29 ng/mL and 43.89 ng/mL and 47.57 ng/mL and 44.33 ng/mL and 45.34 ng/mL
Post-preparation stability, Test Conc., AV (nominal Conc. 244.00 ng/mL): 255.64 ng/mL
Post-preparation stability, Test Conc. [4]: 246.59 ng/mL and 233.24 ng/mL and 257.98 ng/mL and 268.81 ng/mL and 271.60 ng/mL
Post-preparation stability, Test Conc., AV (nominal Conc. 976.00 ng/mL): 937.62 ng/mL
Post-preparation stability, Test Conc. [5]: 857.22 ng/mL and 1007.33 ng/mL and 922.61 ng/mL and 936.47 ng/mL and 964.48 ng/mL
Short-term stability, Test Conc., AV (nominal Conc. 48.80 ng/mL): 51.25 ng/mL
Short-term stability, Test Conc. [3]: 51.42 ng/mL and 50.11 ng/mL and 53.70 ng/mL and 49.73 ng/mL and 51.28 ng/mL
Short-term stability, Test Conc., AV (nominal Conc. 244.00 ng/mL): 228.97 ng/mL
Short-term stability, Test Conc. [4]: 224.99 ng/mL and 229.24 ng/mL and 227.58 ng/mL and 250.98 ng/mL and 212.08 ng/mL
Short-term stability, Test Conc., AV (nominal Conc. 976.00 ng/mL): 902.68 ng/mL
Short-term stability, Test Conc. [5]: 885.52 ng/mL and 865.13 ng/mL and 936.37 ng/mL and 947.50 ng/mL and 878.89 ng/mL
Long-term stability, Test Conc., AV (nominal Conc. 48.80 ng/mL): 43.53 ng/mL
Long-term stability, Test Conc. [3]: 40.64 ng/mL and 40.98 ng/mL and 46.59 ng/mL and 45.84 ng/mL and 43.59 ng/mL
Long-term stability, Test Conc., AV (nominal Conc. 244.00 ng/mL): 226.97 ng/mL
Long-term stability, Test Conc. [4]: 232.85 ng/mL and 226.55 ng/mL and 237.44 ng/mL and 224.60 ng/mL and 213.40 ng/mL
Long-term stability, Test Conc., AV (nominal Conc. 976.00 ng/mL): 947.77 ng/mL
Long-term stability, Test Conc. [5]: 1047.44 ng/mL and 988.88 ng/mL and 924.76 ng/mL and 931.40 ng/mL and 846.39 ng/mL
Free-thaw stability (3 free-thaw cycles) Measured Conc. [1]: 1029.0 ± 62.9 ng/mL
Long-term stability (-80℃ for 15 d) Measured Conc. [1]: 947.8 ± 75.3 ng/mL
Short-term stability (25℃ for 12 h) Measured Conc. [1]: 902.7 ± 36.8 ng/mL
Free-thaw stability (3 free-thaw cycles) Measured Conc. [2]: 50.4 ± 1.8 ng/mL
Long-term stability (-80℃ for 15 d) Measured Conc. [2]: 43.5 ± 2.7 ng/mL
Short-term stability (25℃ for 12 h) Measured Conc. [2]: 51.3 ± 1.6 ng/mL
Free-thaw stability (3 free-thaw cycles) Measured Conc. [6]: 242.5 ± 20.7 ng/mL
Long-term stability (-80℃ for 15 d) Measured Conc. [6]: 227.0 ± 9.1 ng/mL
Short-term stability (25℃ for 12 h) Measured Conc. [6]: 229.0 ± 14.0 ng/mL

O=c1c(O)c(-c2ccc(O)c(O)c2)oc2cc(O)cc(O)c12 [Qr, Quercetin]
Post-preparation stability (4℃ for 24 h) Measured Conc. [1]: 7642.7 ± 675.6 ng/mL
Post-preparation stability (4℃ for 24 h) Measured Conc. [2]: 61.0 ± 4.5 ng/mL
Post-preparation stability (4℃ for 24 h) Measured Conc.: 526.3 ± 60.5 ng/mL
Free-thaw stability, Test Conc., AV (nominal Conc. 65.63 ng/mL): 65.26 ng/mL
Free-thaw stability, Test Conc. [7]: 66.42 ng/mL and 58.78 ng/mL and 57.77 ng/mL and 73.55 ng/mL and 69.78 ng/mL
Free-thaw stability, Test Conc., AV (nominal Conc. 525.00 ng/mL): 511.91 ng/mL
Free-thaw stability, Test Conc. [8]: 492.92 ng/mL and 484.10 ng/mL and 471.66 ng/mL and 550.36 ng/mL and 560.49 ng/mL
Free-thaw stability, Test Conc., AV (nominal Conc. 8400.00 ng/mL): 8631.34 ng/mL
Free-thaw stability, Test Conc. [9]: 7999.32 ng/mL and 7943.88 ng/mL and 8238.72 ng/mL and 9682.68 ng/mL and 9292.08 ng/mL
Post-preparation stability, Test Conc., AV (nominal Conc. 65.63 ng/mL): 61.04 ng/mL
Post-preparation stability, Test Conc. [7]: 58.85 ng/mL and 54.07 ng/mL and 64.70 ng/mL and 64.32 ng/mL and 63.25 ng/mL
Post-preparation stability, Test Conc., AV (nominal Conc. 525.00 ng/mL): 526.26 ng/mL
Post-preparation stability, Test Conc. [8]: 568.94 ng/mL and 459.48 ng/mL and 463.10 ng/mL and 552.93 ng/mL and 586.85 ng/mL
Post-preparation stability, Test Conc., AV (nominal Conc. 8400.00 ng/mL): 7642.66 ng/mL
Post-preparation stability, Test Conc. [9]: 6882.12 ng/mL and 7943.04 ng/mL and 7529.76 ng/mL and 8629.32 ng/mL and 7229.04 ng/mL
Short-term stability, Test Conc., AV (nominal Conc. 65.63 ng/mL): 60.80 ng/mL
Short-term stability, Test Conc. [7]: 57.16 ng/mL and 57.07 ng/mL and 64.40 ng/mL and 62.26 ng/mL and 63.12 ng/mL
Short-term stability, Test Conc., AV (nominal Conc. 525.00 ng/mL): 474.02 ng/mL
Short-term stability, Test Conc. [8]: 478.01 ng/mL and 472.87 ng/mL and 443.05 ng/mL and 442.10 ng/mL and 534.08 ng/mL
Short-term stability, Test Conc., AV (nominal Conc. 8400.00 ng/mL): 7949.42 ng/mL
Short-term stability, Test Conc. [9]: 8294.16 ng/mL and 7882.56 ng/mL and 8019.48 ng/mL and 7925.40 ng/mL and 7625.52 ng/mL
Long-term stability, Test Conc., AV (nominal Conc. 65.63 ng/mL): 59.99 ng/mL
Long-term stability, Test Conc. [7]: 54.24 ng/mL and 60.01 ng/mL and 62.03 ng/mL and 66.54 ng/mL and 57.14 ng/mL
Long-term stability, Test Conc., AV (nominal Conc. 525.00 ng/mL): 500.71 ng/mL
Long-term stability, Test Conc. [8]: 493.55 ng/mL and 501.01 ng/mL and 547.68 ng/mL and 448.04 ng/mL and 513.29 ng/mL
Long-term stability, Test Conc., AV (nominal Conc. 8400.00 ng/mL): 7982.86 ng/mL
Long-term stability, Test Conc. [9]: 7842.24 ng/mL and 9005.64 ng/mL and 8321.88 ng/mL and 7922.88 ng/mL and 6821.64 ng/mL
Free-thaw stability (3 free-thaw cycles) Measured Conc. [1]: 8631.3 ± 801.3 ng/mL
Long-term stability (-80℃ for 15 d) Measured Conc. [1]: 7982.9 ± 795.7 ng/mL
Short-term stability (25℃ for 12 h) Measured Conc. [1]: 7949.4 ± 241.7 ng/mL
Free-thaw stability (3 free-thaw cycles) Measured Conc. [2]: 65.3 ± 6.9 ng/mL
Long-term stability (-80℃ for 15 d) Measured Conc. [2]: 60.0 ± 4.7 ng/mL
Short-term stability (25℃ for 12 h) Measured Conc. [2]: 60.8 ± 3.5 ng/mL
Free-thaw stability (3 free-thaw cycles) Measured Conc. [6]: 511.9 ± 40.6 ng/mL
Long-term stability (-80℃ for 15 d) Measured Conc. [6]: 500.7 ± 36.0 ng/mL
Short-term stability (25℃ for 12 h) Measured Conc. [6]: 474.0 ± 37.4 ng/mL
